Laboratory results taken from ChEMBL document CHEMBL1201862, “PubChem BioAssay data set” (2004).
The source made the active and inactive calls.

Tests used:
[1] = biological target: Sphingosine 1-phosphate receptor 2 (Homo sapiens, UniProt O95136); test: Late-stage fluorescence-based dose-response cell-based counterscreen assay to identify agonists of the Sphingosine 1-Phosphate Receptor 3 (S1P3): Sphingosine 1-Phosphate Receptor 2 (S1P2) agonist assay.; format: functional
[2] = biological target: T1, Sphingosine 1-phosphate receptor 4 (Homo sapiens, UniProt O95977); test: Late-stage fluorescence-based dose-response cell-based counterscreen assay to identify agonists of the Sphingosine 1-Phosphate Receptor 3 (S1P3): Sphingosine 1-Phosphate Receptor 4 (S1P4) agonist assay.; format: functional
T1 sequence (O95977 whole entry): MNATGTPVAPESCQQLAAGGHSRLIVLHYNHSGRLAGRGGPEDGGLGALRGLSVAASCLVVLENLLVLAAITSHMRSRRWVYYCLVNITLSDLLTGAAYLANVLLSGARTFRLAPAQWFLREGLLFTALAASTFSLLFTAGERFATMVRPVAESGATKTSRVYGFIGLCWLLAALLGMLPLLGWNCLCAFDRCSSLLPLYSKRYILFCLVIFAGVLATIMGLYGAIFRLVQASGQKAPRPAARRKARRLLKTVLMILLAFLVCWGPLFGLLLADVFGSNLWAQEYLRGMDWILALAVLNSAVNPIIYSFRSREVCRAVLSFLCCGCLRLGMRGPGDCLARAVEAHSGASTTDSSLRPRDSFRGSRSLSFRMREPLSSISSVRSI

[3] = biological target: Tyrosine-protein kinase ABL1 (Homo sapiens, UniProt P00519); format: functional
[4] = biological target: Vascular endothelial growth factor receptor 2 (Homo sapiens, UniProt P35968); format: functional
Vascular endothelial growth factor receptor 2, sequence (P35968 whole entry): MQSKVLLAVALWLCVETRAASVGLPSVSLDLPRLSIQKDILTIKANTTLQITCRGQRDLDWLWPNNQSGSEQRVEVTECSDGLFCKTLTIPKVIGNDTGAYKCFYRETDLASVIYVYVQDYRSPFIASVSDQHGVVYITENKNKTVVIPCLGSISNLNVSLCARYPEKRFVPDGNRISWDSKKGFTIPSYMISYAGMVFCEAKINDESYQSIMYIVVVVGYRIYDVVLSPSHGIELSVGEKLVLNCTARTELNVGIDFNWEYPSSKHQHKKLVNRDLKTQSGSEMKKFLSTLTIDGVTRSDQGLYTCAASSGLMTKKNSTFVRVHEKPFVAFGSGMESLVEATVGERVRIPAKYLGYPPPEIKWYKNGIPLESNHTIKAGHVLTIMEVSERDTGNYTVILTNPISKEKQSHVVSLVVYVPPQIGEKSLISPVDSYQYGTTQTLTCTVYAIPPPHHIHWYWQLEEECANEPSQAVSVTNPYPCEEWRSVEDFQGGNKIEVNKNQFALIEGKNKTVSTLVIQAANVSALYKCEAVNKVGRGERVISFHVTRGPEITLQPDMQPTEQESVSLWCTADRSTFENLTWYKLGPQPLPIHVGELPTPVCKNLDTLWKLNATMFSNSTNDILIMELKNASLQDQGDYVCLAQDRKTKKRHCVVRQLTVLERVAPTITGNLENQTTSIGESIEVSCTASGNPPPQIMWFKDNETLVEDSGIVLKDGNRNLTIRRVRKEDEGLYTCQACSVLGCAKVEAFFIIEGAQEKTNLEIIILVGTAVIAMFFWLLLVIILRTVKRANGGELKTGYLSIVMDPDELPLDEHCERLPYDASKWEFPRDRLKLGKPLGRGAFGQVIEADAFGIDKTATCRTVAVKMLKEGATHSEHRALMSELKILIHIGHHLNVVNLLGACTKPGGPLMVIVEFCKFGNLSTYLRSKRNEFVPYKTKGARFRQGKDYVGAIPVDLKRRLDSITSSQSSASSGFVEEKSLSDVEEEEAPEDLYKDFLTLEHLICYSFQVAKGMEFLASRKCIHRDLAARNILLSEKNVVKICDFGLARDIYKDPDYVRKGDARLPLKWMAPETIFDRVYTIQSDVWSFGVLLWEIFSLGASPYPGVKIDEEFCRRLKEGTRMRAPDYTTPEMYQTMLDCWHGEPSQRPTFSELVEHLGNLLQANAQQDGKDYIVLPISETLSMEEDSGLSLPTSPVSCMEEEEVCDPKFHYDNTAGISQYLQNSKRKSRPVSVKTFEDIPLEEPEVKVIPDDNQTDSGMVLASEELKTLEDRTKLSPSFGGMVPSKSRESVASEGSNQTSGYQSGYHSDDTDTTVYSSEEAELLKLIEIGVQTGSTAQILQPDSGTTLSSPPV

[5] = biological target: Eukaryotic elongation factor 2 kinase (Homo sapiens, UniProt O00418); format: functional
[6] = biological target: Testis-specific serine/threonine-protein kinase 2 (Homo sapiens, UniProt Q96PF2); format: functional;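 also: part of the Navigating the Kinome panel, target entry STK22B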
Testis-specific serine/threonine-protein kinase 2, sequence (Q96PF2 whole entry): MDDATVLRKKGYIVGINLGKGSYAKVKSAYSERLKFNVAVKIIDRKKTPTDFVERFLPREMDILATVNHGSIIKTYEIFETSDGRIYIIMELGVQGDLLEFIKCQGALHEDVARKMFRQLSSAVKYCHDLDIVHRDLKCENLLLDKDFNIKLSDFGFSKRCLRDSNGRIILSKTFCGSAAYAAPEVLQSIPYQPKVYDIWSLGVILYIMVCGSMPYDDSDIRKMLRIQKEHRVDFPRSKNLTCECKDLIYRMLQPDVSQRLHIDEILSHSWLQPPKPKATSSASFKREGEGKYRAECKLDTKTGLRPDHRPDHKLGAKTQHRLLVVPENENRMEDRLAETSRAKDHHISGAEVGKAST

[7] = biological target: Cell division cycle 7-related protein kinase (Homo sapiens, UniProt O00311); format: functional;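 also: value obtained from a kinome-wide kinase panel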
[8] = biological target: Protein kinase C gamma type (Homo sapiens, UniProt P05129); format: functional
[9] = biological target: Dual specificity tyrosine-phosphorylation-regulated kinase 3 (Homo sapiens, UniProt O43781); format: functional;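 also: measured as one member of a broad kinase panel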
[10] = biological target: MAP kinase-activated protein kinase 3 (Homo sapiens, UniProt Q16644); format: functional;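 also: value comes from a kinome-wide profiling panel in which MAPKAPK3 is one of the panel members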
MAP kinase-activated protein kinase 3, sequence (Q16644 whole entry): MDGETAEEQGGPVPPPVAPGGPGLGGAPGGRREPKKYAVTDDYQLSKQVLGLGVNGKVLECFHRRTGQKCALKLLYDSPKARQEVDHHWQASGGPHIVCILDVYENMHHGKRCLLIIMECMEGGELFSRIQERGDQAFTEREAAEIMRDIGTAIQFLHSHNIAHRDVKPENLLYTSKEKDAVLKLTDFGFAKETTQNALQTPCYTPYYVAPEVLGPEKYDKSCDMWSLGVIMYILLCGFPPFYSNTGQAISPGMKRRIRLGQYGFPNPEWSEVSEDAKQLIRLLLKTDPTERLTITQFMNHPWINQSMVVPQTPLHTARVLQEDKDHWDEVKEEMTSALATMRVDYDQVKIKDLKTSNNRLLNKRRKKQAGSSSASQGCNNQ

[11] = biological target: Dual specificity tyrosine-phosphorylation-regulated kinase 4 (Homo sapiens, UniProt Q9NR20); format: functional
Dual specificity tyrosine-phosphorylation-regulated kinase 4, sequence (Q9NR20 whole entry): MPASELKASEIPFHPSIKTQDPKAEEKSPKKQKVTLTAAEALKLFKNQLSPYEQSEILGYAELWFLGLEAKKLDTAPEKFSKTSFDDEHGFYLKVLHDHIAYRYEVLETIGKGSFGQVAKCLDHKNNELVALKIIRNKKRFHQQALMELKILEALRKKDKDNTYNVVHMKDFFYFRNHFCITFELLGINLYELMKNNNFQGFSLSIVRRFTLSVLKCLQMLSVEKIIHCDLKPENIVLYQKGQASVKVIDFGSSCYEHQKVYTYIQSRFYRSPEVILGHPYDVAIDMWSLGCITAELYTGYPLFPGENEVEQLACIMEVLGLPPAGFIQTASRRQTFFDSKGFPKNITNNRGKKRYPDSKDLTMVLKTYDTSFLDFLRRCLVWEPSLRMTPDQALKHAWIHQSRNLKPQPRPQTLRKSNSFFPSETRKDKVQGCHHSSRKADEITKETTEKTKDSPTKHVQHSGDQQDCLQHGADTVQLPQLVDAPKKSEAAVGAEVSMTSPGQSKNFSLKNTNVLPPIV

[12] = biological target: Lymphokine-activated killer T-cell-originated protein kinase (Homo sapiens, UniProt Q96KB5); format: functional;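 also: value comes from a kinase panel screen in which TOPK was one of the panel members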
Lymphokine-activated killer T-cell-originated protein kinase, sequence (Q96KB5 whole entry): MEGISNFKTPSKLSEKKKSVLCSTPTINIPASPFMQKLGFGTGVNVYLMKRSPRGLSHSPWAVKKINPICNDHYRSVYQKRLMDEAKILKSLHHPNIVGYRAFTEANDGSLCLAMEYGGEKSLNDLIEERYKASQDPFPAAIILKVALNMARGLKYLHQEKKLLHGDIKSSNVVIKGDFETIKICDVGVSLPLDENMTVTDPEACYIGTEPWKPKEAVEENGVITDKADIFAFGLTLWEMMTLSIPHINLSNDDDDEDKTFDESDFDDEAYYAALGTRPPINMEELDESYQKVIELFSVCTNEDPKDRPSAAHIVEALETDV

[13] = biological target: Luciferin 4-monooxygenase (Photinus pyralis, UniProt P08659); test: inhibition of purified Photinus pyralis luciferase – biochemical, luminescence, dose response (AID 1891)
[14] = Luminescence Cell-Based Dose Confirmation HTS to Identify Inhibitors of Platelet Dense Granule Release. [Related pubchem assays: 1663 (Primary HTS), 1678 (Summary of Project)]; format: functional
[15] = luciferase inhibitors in kinase-free ADP detection – biochemical, luminescence, cherry-pick, set 02, artefact control for Dyrk1A inhibitor project, dose response (AID 588348)
[16] = biological target: Dual specificity tyrosine-phosphorylation-regulated kinase 1A (Rattus norvegicus, UniProt Q63470); format: biochemical, Homo sapiens
[17] = biological target: T2, Oxysterols receptor LXR-beta (Homo sapiens, UniProt P55055); format: functional, cell-based;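 also: Cell-based luminescence dose-response assay of agonist activity at LXR, run as a confirmatory counterscreen to a daf-12 agonist screen; HEK293 cells with Gal4-LXR fusion and GAL4-driven luciferase reporter; agonist potency from rising luciferase signal of a Gal4-LXR reporter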
T2 sequence (P55055 whole entry): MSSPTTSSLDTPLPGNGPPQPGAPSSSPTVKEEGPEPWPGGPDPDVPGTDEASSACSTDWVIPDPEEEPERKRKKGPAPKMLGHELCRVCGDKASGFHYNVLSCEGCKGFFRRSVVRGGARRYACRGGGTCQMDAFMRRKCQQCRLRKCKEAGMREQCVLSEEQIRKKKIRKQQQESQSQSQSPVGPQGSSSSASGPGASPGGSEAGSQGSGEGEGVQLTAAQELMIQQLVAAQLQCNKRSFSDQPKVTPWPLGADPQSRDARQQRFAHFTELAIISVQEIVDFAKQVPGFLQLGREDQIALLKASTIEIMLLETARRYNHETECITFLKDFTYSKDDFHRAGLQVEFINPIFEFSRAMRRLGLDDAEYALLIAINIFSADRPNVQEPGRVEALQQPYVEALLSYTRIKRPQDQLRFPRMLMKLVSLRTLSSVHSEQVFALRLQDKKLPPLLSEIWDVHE

cells [18] = test: cells
[19] = biological target: Luciferin 4-monooxygenase (Photuris pensylvanica, UniProt Q27757); test: inhibition of Cell Titer Glo luciferase signal – biochemical, luminescence, cherry-picks, counter-screen for HSF-1 reporter inhibitor project, dose response (AID 588847)
Luciferin 4-monooxygenase (Photuris pensylvanica, UniProt Q27757), sequence (Q27757 whole entry): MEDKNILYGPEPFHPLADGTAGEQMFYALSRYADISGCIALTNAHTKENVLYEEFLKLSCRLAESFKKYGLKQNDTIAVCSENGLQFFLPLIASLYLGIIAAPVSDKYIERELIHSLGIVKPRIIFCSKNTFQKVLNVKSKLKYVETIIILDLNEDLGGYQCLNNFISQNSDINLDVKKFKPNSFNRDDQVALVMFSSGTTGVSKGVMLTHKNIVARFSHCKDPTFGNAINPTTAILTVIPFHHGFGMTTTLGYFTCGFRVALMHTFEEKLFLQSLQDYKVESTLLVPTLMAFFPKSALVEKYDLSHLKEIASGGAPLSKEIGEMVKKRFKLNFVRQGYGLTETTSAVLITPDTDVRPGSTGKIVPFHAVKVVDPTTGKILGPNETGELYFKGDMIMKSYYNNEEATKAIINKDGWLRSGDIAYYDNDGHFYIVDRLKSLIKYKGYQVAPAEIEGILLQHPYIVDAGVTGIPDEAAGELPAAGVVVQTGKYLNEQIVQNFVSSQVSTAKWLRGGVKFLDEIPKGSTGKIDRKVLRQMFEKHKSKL

[20] = biological target: T3, Short transient receptor potential channel 4 (Mus musculus, UniProt Q9QUQ5); test: SAR Analysis for the identification of selective inhibits of the transient receptor potential cation channel C4 (TRPC4): Automated Electrophysiology. [Related pubchem assays (depositor defined):AID2256]; format: functional
T3 sequence (Q9QUQ5 whole entry): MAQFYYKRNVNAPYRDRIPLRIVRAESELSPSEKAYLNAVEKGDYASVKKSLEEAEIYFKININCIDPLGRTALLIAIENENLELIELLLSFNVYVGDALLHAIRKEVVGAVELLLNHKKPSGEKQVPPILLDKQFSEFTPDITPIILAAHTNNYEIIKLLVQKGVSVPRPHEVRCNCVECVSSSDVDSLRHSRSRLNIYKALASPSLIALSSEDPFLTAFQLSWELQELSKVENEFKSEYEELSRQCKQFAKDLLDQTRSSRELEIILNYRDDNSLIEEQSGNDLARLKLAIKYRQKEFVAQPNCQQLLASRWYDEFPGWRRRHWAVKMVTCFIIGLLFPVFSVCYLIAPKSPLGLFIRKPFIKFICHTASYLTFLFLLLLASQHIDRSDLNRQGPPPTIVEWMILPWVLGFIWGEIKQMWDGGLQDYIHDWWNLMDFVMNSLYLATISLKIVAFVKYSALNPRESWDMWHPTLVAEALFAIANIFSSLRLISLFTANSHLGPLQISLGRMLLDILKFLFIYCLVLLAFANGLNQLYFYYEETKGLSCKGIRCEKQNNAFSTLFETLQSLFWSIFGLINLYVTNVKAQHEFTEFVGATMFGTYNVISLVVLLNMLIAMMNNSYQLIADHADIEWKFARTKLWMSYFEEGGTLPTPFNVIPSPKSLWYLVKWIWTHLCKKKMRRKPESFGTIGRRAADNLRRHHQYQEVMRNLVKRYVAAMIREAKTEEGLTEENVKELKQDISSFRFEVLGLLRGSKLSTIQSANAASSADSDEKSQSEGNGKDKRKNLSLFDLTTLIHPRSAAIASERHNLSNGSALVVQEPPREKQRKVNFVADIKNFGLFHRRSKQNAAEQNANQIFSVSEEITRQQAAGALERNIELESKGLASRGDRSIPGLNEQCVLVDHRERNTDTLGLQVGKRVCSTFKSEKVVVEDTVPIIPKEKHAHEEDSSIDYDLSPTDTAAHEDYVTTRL

[21] = biological target: T3, Short transient receptor potential channel 4; test: mouse TRPC4 block via Gq-coupled stimulation – cell-based, acetylcholine stimulus, HEK293 TRPC4, Fluo-4, SAR follow-up (AID 492996); format: functional
[22] = biological target: Short transient receptor potential channel 6 (Mus musculus, UniProt Q61143); test: mouse TRPC6 channel blockers, concentration series – HEK293 cells, membrane potential dye, IC50, selectivity assay for selective TRPC4 inhibitor project, dose response (AID 492987); format: functional, cell-based
[23] = biological target: T3, Short transient receptor potential channel 4; test: potency of mouse TRPC4 calcium flux blockers – cell-based, HEK293 TRPC4/mu-opioid, DAMGO stimulus, Fluo-4, dose response (AID 492994); format: functional
HEK293 = test: EBV LMP1 TES2 canonical NF-kB signalling blockers – cell-based, HEK293, luciferase, cherry-pick, dose response (AID 588343); format: functional; settings: Homo sapiens
[24] = biological target: Latent membrane protein 1 (Human herpesvirus 4 (strain B95-8), UniProt P03230); test: LMP1 TES1 pathway selectivity over dsRED control – imaging, HEK293T, dual-color eGFP/dsRED, cherry-picks, selectivity assay for LMP1 NF-kB inhibitor project, dose response (AID 588398); format: functional, cell-based
Latent membrane protein 1, sequence (P03230 whole entry): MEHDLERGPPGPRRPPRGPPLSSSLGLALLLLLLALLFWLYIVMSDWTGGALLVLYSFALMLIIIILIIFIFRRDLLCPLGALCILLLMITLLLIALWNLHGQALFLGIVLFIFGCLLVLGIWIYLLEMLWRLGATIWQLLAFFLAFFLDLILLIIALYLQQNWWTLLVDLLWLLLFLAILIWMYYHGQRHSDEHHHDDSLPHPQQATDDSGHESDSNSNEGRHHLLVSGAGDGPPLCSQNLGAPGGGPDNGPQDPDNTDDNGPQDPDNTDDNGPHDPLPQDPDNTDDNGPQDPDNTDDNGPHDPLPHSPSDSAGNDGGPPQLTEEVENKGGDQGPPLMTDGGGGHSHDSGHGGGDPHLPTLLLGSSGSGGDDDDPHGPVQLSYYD

[25] = biological target: T4, Corticotropin-releasing factor receptor 2/Corticotropin-releasing factor-binding protein (Homo sapiens, UniProt P24387+Q13324); test: activators of CRF receptor 2 with binding protein – uHTS hits, confirmation (AID 602473); format: functional; settings: read-out: EC50_Mean
T4 sequence (Q13324 whole entry): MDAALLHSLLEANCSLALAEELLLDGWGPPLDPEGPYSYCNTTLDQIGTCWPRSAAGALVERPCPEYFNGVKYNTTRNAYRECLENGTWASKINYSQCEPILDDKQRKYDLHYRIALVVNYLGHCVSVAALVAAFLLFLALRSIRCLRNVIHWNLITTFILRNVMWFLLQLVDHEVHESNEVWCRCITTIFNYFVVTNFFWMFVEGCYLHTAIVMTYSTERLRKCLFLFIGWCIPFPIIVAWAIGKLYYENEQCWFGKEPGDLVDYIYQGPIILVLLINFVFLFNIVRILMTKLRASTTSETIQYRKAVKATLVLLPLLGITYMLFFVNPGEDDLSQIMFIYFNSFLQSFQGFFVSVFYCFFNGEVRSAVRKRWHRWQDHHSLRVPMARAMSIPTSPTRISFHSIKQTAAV
T4 sequence (P24387 whole entry): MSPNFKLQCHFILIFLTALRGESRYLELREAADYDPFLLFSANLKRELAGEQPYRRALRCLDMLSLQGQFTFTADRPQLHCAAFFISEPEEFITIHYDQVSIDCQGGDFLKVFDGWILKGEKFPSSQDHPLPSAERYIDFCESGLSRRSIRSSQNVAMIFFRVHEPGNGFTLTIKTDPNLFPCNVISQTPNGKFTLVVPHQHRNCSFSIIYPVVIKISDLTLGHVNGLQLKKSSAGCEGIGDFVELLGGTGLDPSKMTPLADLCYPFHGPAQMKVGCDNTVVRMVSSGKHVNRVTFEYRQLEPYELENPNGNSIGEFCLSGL

[26] = luciferase reporter signal suppression in cells – H4 neuroglioma cells, luminescence, dose response (AID 1990); format: functional, cell-based
[27] = luciferase reporter signal reduction – luminescence, H4-C neuroglioblastoma cells, dose response (AID 2458); format: functional, cell-based;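 also: H4 neuroglioblastoma cells stably carrying a luciferase reporter gene fusion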
BJ [28] = test: BJ-TERT fibroblast viability loss – cell-based, RAS-independent, luminescence, dose response (AID 1933); format: functional; settings: Homo sapiens
cells [29] = format: functional, cell-based
[30] = Luminescence Cell-Based Dose Response HTS to Identify Inhibitors of 5'UTR Stem-Loop Driven Prion Protein mRNA Translation in H4 Neuroglioblastoma Cells. [Related pubchem assays: 1827 (Project Summary), 1813 (Primary HTS)]; format: functional
[31] = alpha-synuclein stem-loop luciferase translation blockers – H4 neuroglioma cells, luminescence, confirmation (AID 1988); format: functional, cell-based
BJ [32] = test: cells; format: functional, cell-based; settings: Homo sapiens
[33] = Luminescence-based dose response cell-based high throughput screening assay for cytotoxic compounds using the IEC-6 intestinal epithelial cell line. [Related pubchem assays: 1858 (Summary AID.), 1825 (Counterscreen.), 1907 (Confirmation screen.)]; format: functional
BJ [34] = test: BJ-TERT-LT-ST fibroblast viability loss – cell-based, RAS-independent, luminescence, dose response (AID 1935); format: functional; settings: Homo sapiens;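 also: BJ fibroblasts immortalized with TERT plus LT and ST oncogenes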
[35] = DRD fibroblast viability loss – cell-based, non-viral oncogenic, luminescence, dose response (AID 1934); format: functional; settings: Homo sapiens
[36] = alpha-synuclein stem-loop translation blockers – luminescence, H4 neuroglioblastoma cells, dose confirmation, confirmation (AID 2454); format: functional, cell-based;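 also: H4 neuroglioblastoma cells carrying an alpha-synuclein 5'UTR luciferase reporter; potency for inhibition of the luciferase signal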
BJ [37] = test: growth inhibition of engineered Ras-driven BJ cells – cell-based, alamar blue fluorescence, cherrypicked samples, dose response (AID 2631); format: functional; settings: Homo sapiens;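 also: confirmatory dose-response assay in RAS-dependent BJ fibroblasts engineered with TERT, LT and ST, with cytotoxicity read by fluorescence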

Sphingosine 1-phosphate receptor 2, sequence (O95136 whole entry): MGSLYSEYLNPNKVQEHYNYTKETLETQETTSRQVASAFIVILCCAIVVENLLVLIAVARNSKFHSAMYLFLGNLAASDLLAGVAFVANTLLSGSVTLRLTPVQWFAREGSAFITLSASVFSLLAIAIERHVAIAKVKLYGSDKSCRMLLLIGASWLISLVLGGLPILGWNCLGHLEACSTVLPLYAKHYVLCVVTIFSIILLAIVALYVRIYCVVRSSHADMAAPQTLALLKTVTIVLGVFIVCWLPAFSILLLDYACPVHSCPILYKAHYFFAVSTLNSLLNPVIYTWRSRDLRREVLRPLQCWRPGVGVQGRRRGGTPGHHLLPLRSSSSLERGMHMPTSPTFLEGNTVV

COc1ccc(-c2cc(C(=O)N(C3CCCCC3)C3CCCCC3)no2)cc1OC
inactive: EC50 [1] > 50 µM | EC50 [2] > 50 µM

N#Cc1cnc2c(Br)cnn2c1N
active: Ki [3] 79.4 µM | Ki [4] 100 µM

Cc1ccc(NC(=O)c2ccc(CN3CCN(C)CC3)cc2)cc1Nc1nccc(-c2cccnc2)n1 [IMATINIB]
inactive: Ki [5] > 3.98 µM | Ki [6] > 1.58 µM | Ki [7] > 1.26 µM | Ki [8] > 7.94 µM | Ki [9] > 6.31 µM | Ki [10] > 10 µM | Ki [11] > 7.94 µM | Ki [12] > 10 µM

Cc1ccccc1C(=O)O/N=C(\N)c1ccccc1
active: EC50 [13] 3.42 µM | EC50 [14] 2.72 µM | AC50 [15] 60.9 µM | AC50 [16] 62.5 µM
inactive: EC50 [17] > 67.5 µM | EC50 (cells [18]) > 67.5 µM

C[C@]12C=CC(=O)C=C1CC[C@@H]1[C@@H]2[C@@H](O)C[C@@]2(C)[C@H]1CC[C@]2(O)C(=O)CO [PREDNISOLONE]
inactive: AC50 [19] > 52 µM

Cc1cc(N2CCN(c3ccncc3)CC2)nc2ccccc12
active: IC50 [20] 8.18 µM | IC50 [21] 15.2 µM | IC50 [22] 11.4 µM | IC50 [23] 19.9 µM

CC(C)(C)c1ccc(C(=O)N2CCC(=O)N(C(CO)Cc3ccccc3)CC2)cc1 (stereo not drawn)
active: AC50 (HEK293) 173 µM | AC50 [24] 347 µM
inactive: EC50 [25] > 53 µM

C#CCOc1ccc(C2C3=C(O)OCC3=Nc3cc4c(cc32)OCO4)cc1OC (stereo not drawn)
active: EC50 [26] < 0.1 µM | EC50 [27] 0.234 µM | EC50 (cells [29]) 0.371 µM | EC50 [30] < 0.1 µM | EC50 [31] < 0.1 µM | IC50 [33] 0.0471 µM | EC50 (BJ [34]) 0.942 µM | EC50 [36] 0.231 µM | EC50 (BJ [37]) < 0.104 µM
inconclusive: EC50 (BJ [28]) 3.14 µM | EC50 (BJ [32]) 2.72 µM | EC50 [35] 0.9 µM
